The source of these data is patent publication US9895346B2, “Applications of substituent benzyloxy group containing ether compounds for preparing antitumor drugs” (Sinochem Corporation, priority 2013, dated 2018).

Test [1] deals with lung cancer cell line A549. The test is described as follows: In vitro cell inhibition assay (crystal violet), lung cancer A549. The format is cell-based, human. The source says: (§1) In vitro Cell inhibition assay is as follows:
(§2) The human cancer cell lines used for this assay were bladder cancer J82, T24, prostate cancer LNCap, PC-3, lung cancer A549, H157, H460, H520, colon cancer HCT8, HCT116, RkO, and leukemia HL-60, etc.
(§3) In vitro cell culture technology was selected for the determination of inhibition rate bladder cancer cell lines J82 and T24, prostate cancer cell lines LNCap and PC-3, lung cancer cell lines A549, H157, H460 and H520. 1000 to 3000 cells were inoculated to 24-well plate, followed by addition of 1 mL culture medium well known to researchers in this field to each well, the cells were cultured in 5% incubator for 24 hours at 37° C., then the different concentration compounds and controls were added to each well. It should be noted that the added volume is not more than 0.5% of total volume. After completion of addition, the cells continued being cultured in incubator for one week, the culture medium was removed and washed by cold PBS of 1 mL once, and then fixed for 10 minutes at room temperature with 1% formalin, followed by wash with PBS of 1 mL. After fixation, stain was carried out with 0.1% crystal violet for 30 minutes. 0.1% crystal violet was recycled. The stained cells were washed gently with deionized water, dried at room temperature and kepted. The inhibition rate was calculated according to the foiling equation. The controls are Selumetinib (AZD6244), Gefitinib, Cisplatin. Inhibition rate=number of left cells each treatment/number of left cells of untreated control×100%

The test system of test [2] is lung cancer cell line H460. Put plainly: In vitro cell inhibition assay (crystal violet), lung cancer H460. The format is cell-based, human.
Excerpt: as §1, §2, §3

The subject of test [3] is lung cancer cell line H520. The test is described as follows: In vitro cell inhibition assay (crystal violet), lung cancer H520. Type of test: cell-based, human.
Excerpt: as §1, §2, §3

Test [4] deals with human leukemia HL-60 cells. The test is described as follows: Proliferation inhibition of human leukemia HL-60 cells, MTT method. The format is cell-based. The conditions noted are these: 48 h incubation, OPTI-MEM medium. The protocol: The inhibition rate of human leukemia HL-60 cells was evaluated by regular MTT method. The human leukemia HL-60 cells were picked up from cell incubator, after washed for twice using PBS, cells were digested by 0.25% trypsin, and then add medium to terminate the digestion. After cells were collected using centrifuge and re-suspended, counting cells under inverted microscope and adding medium to make a density which was 5×10^4 cells/mL. After 100 μL aliquots were added to each well of 96-well microtiter plates, cells were cultured in 5% incubator for overnight at 37° C., then the different concentration compounds were added to each well. After incubation for 48 h, MTT solution was added to each well and plates were then incubated for 4 h. The MTT tetrazolium was reduced to formazan by living cells. Then the formazan crystals were dissolved though adding DMSO to each well. The absorbance was read at 570 nm with a microplate reader.
A general note: Tetrazolium assays rely on reduction of a dye to a coloured formazan, in cell work by metabolically active cells.

The test system of another test is colon cancer HCT8. The test is described as follows: In vitro cell inhibition assay, colon cancer HCT8. The format is cell-based, human.
Excerpt: as §1, §2

Another test has as its system colon cancer HCT116. Put plainly: In vitro cell inhibition assay, colon cancer HCT116. The format is cell-based, human.
Excerpt: as §1, §2

The test system of the next test is colon cancer RkO. Put plainly: In vitro cell inhibition assay, colon cancer RkO. Type of test: cell-based, human.
Excerpt: as §1, §2

The test system of test [5] is bladder cancer cell line J82. The test is described as follows: In vitro cell inhibition assay (crystal violet), bladder cancer J82. The format is cell-based, human. The conditions noted are these: Homo sapiens, read-out: Inhibition rate on human cancer cells.
Excerpt: as §1, §2, §3

As for `CCCc1c(C)c2ccc(OCc3ccccc3C(=COC)C(=O)OC)cc2oc1=O` [Compound 28-27], the “Inhibition rate on human cancer cells” value in test [1] (A549, 1.0 μM) worked out at 80%; in test [1] (A549, 2.5 μM) it was 90%; in test [1] (A549, 5.0 μM), 95%; in test [2] (H460, 1.0 μM), 80%; in test [2] (H460, 2.5 μM), 95%; in test [2] (H460, 5.0 μM) it was 95%. The “Inhibition rate on human cancer cells” value in test [3] (H520, 0.5 μM) turned out to be 95%; in test [3] (H520, 1.0 μM), 100%; in test [3] (H520, 2.5 μM), 100%; in test [3] (H520, 5.0 μM) it was 100%. In addition, the “Proliferation inhibitory effect on human leukemia HL-60 cell (%)” value (“Proliferation inhibitory effect … (%)” for short) in test [4] (concentration 1 μM) is given as 59.0%; in test [4] (concentration 10 μM), 79.9%; in test [4] (concentration 100 μM), 83.9%.

Regarding `COC=C(C(=O)OC)c1ccccc1COc1ccc2c(C)cc(=O)oc2c1` [Compound 28-2], the “Inhibition rate on human cancer cells” value in test [2] (H460, 5.0 μM) was 95%. Besides, the “Proliferation inhibitory effect … (%)” value amounted to 6.0% in test [4] (concentration 1 μM), 49.2% in test [4] (concentration 10 μM) and 71.3% in test [4] (concentration 100 μM).

As for `COC=C(C(=O)OC)c1ccccc1COc1ccc2c(C)c(F)c(=O)oc2c1` [Compound 28-50], the “Inhibition rate on human cancer cells” value in test [1] (A549, 5.0 μM) was 90%; in test [2] (H460, 1.0 μM) it was 70%; in test [2] (H460, 2.5 μM), 90%; in test [2] (H460, 5.0 μM), 95%; in test [3] (H520, 0.25 μM), 30%; in test [3] (H520, 0.5 μM), 50%. For the same compound, the “Inhibition rate on human cancer cells” value in test [3] (H520, 1.0 μM) was determined as 60%; in test [3] (H520, 2.5 μM), 80%; in test [3] (H520, 5.0 μM), 100%. In addition, the “Proliferation inhibitory effect … (%)” value in test [4] (concentration 1 μM) amounted to 47.1%; in test [4] (concentration 10 μM), 83.1%; in test [4] (concentration 100 μM), 84.8%.

For the compound `COC=C(C(=O)OC)c1ccccc1COc1ccc2c3c(c(=O)oc2c1)CCCC3` [Compound 28-128], the “Inhibition rate on human cancer cells” value in test [1] (A549, 0.25 μM) turned out to be 70%; in test [1] (A549, 0.5 μM) it was 100%; in test [1] (A549, 1.0 μM) it was 100%; in test [1] (A549, 2.5 μM) it was 100%; in test [1] (A549, 5.0 μM) it was 100%; in test [2] (H460, 0.25 μM) it was 80%. Further, the “Inhibition rate on human cancer cells” value in test [2] (H460, 0.5 μM) is reported as 100%; in test [2] (H460, 1.0 μM), 100%; in test [2] (H460, 2.5 μM), 100%; in test [2] (H460, 5.0 μM), 100%; in test [3] (H520, 0.25 μM) it was 70%; in test [3] (H520, 0.5 μM), 100%. Also, the “Inhibition rate on human cancer cells” value in test [3] (H520, 1.0 μM) came to 100%; in test [3] (H520, 2.5 μM), 100%; in test [3] (H520, 5.0 μM), 100%; with colon cancer HCT8 (HCT 8, 0.25 μM), 95%; with colon cancer HCT8 (HCT 8, 0.5 μM), 100%; in the test on colon cancer HCT8 (HCT 8, 1.0 μM) it was 100%. Also, the “Inhibition rate on human cancer cells” value is 100% in the test on colon cancer HCT8 (HCT 8, 2.5 μM); 100% with colon cancer HCT8 (HCT 8, 5.0 μM); 95% in the test with colon cancer HCT116 (HCT 116, 0.25 μM); 100% in the test with colon cancer HCT116 (HCT 116, 0.5 μM); 100% in the test on colon cancer HCT116 (HCT 116, 1.0 μM); 100% in the test on colon cancer HCT116 (HCT 116, 2.5 μM). In addition, the “Inhibition rate on human cancer cells” value was 100% in the test on colon cancer HCT116 (HCT 116, 5.0 μM); 99% with colon cancer RkO (0.25 μM); 100% in the test on colon cancer RkO (0.5 μM); 100% in the test on colon cancer RkO (1.0 μM); 100% with colon cancer RkO (2.5 μM); 100% with colon cancer RkO (5.0 μM).

In the case of `CO/C=C(/C(=O)OC)c1ccccc1COc1ccc(C(F)(F)F)cc1Cl` [compound B, flufenoxystrobin], the inhibition (usually the relative decrease from the control value, in per cent) at 0.25 µM in test [5] (J82, 0.25 μM) is 0%. In addition, the inhibition at 0.5 µM in test [5] (J82, 0.5 μM) came to 50%. Also, the inhibition at 1 µM in test [5] (J82, 1.0 μM) was 90%. Further, the inhibition at 2.5 µM in test [5] (J82, 2.5 μM) came to 95%. In addition, the inhibition at 5 µM in test [5] (J82, 5.0 μM) worked out at 100%.

Consider `COC=C(C(=O)OC)c1ccccc1COc1ccc2c(C(F)(F)F)cc(=O)oc2c1` [Compound 28-7], for which the “Inhibition rate on human cancer cells” value is 70% in test [1] (A549, 2.5 μM); 90% in test [1] (A549, 5.0 μM); 80% in test [2] (H460, 2.5 μM); 95% in test [2] (H460, 5.0 μM); 80% in test [3] (H520, 2.5 μM); 100% in test [3] (H520, 5.0 μM). The “Proliferation inhibitory effect … (%)” value in test [4] (concentration 1 μM) was 42.3%; in test [4] (concentration 10 μM), 71.0%; in test [4] (concentration 100 μM) it was 83.9%.

As for `COC=C(C(=O)OC)c1ccccc1COc1ccc2c3c(c(=O)oc2c1C)CCCC3` [Compound 28-129], the “Inhibition rate on human cancer cells” value in test [1] (A549, 0.25 μM) was 90%; in test [1] (A549, 0.5 μM), 95%; in test [1] (A549, 1.0 μM), 100%; in test [1] (A549, 2.5 μM) it was 100%; in test [1] (A549, 5.0 μM) it was 100%; in test [2] (H460, 0.5 μM) it was 70%. Also, the “Inhibition rate on human cancer cells” value in test [2] (H460, 1.0 μM) was 95%; in test [2] (H460, 2.5 μM) it was 100%; in test [2] (H460, 5.0 μM), 100%; in test [3] (H520, 0.25 μM), 85%; in test [3] (H520, 0.5 μM), 95%; in test [3] (H520, 1.0 μM) it was 100%. The “Inhibition rate on human cancer cells” value came out at 100% in test [3] (H520, 2.5 μM); 100% in test [3] (H520, 5.0 μM); 80% with colon cancer HCT8 (HCT 8, 0.25 μM); 95% in the test with colon cancer HCT8 (HCT 8, 0.5 μM); 100% in the test with colon cancer HCT8 (HCT 8, 1.0 μM); 100% in the test on colon cancer HCT8 (HCT 8, 2.5 μM). Further, the “Inhibition rate on human cancer cells” value in the test with colon cancer HCT8 (HCT 8, 5.0 μM) is listed as 100%; in the test with colon cancer HCT116 (HCT 116, 0.25 μM) it was 90%; in the test on colon cancer HCT116 (HCT 116, 0.5 μM), 95%; in the test on colon cancer HCT116 (HCT 116, 1.0 μM), 100%; in the test on colon cancer HCT116 (HCT 116, 2.5 μM), 100%; in the test on colon cancer HCT116 (HCT 116, 5.0 μM) it was 100%. In addition, the “Inhibition rate on human cancer cells” value with colon cancer RkO (0.25 μM) was 85%; in the test with colon cancer RkO (0.5 μM), 99%; in the test on colon cancer RkO (1.0 μM) it was 100%; in the test with colon cancer RkO (2.5 μM), 100%; with colon cancer RkO (5.0 μM) it was 100%.

Consider `COC=C(C(=O)OC)c1ccccc1COc1ccc2c(C)c(C(C)C)c(=O)oc2c1` [Compound 28-71], for which the entries for the “Proliferation inhibitory effect … (%)” value in test [4] (concentration 1 μM), in test [4] (concentration 10 μM) and in test [4] (concentration 100 μM) were 40.9%, 48.2% and 50.3%, respectively.

Turning to `COC=C(C(=O)OC)c1ccccc1COc1ccc2c(-c3ccc(Cl)nc3)cc(=O)oc2c1` [Compound 28-124], the “Inhibition rate on human cancer cells” value came to 75% in test [2] (H460, 5.0 μM) and 70% in test [3] (H520, 5.0 μM). Further, the figures for the “Proliferation inhibitory effect … (%)” value in test [4] (concentration 1 μM), in test [4] (concentration 10 μM) and in test [4] (concentration 100 μM) were 0.5%, 29.3% and 27.8%, respectively.

Turning to `COC=C(C(=O)OC)c1ccccc1COc1ccc2c3c(c(=O)oc2c1)CCC3` [Compound 28-125], the “Proliferation inhibitory effect … (%)” value in test [4] (concentration 1 μM) was 47.0%; in test [4] (concentration 10 μM) it was 73.8%; in test [4] (concentration 100 μM) it was 85.0%.
